Laboratory results published in a melting point compilation (Tetko et al.; mined from patent text by program, amines drawn as free bases though some values may be those of a salt).

Question: For `CC1(c2cc(NC(=O)c3ccc(Cl)cn3)ccc2F)N=C(N)COCC1(F)F` (configuration not stated), which melting point is on record?
Answer: Its melting point is 190 to 193 °C.

Question: For `CCCc1c(OCc2cccc(C(=O)O)c2OCC)ccc(C(C)=O)c1O`, which melting point is on record?
Answer: Its melting point is 154 to 156 °C.

Question: Which melting point does the source give for `CC(=O)OC1=C(c2nnc(C)o2)N(C)S(=O)(=O)c2ccccc21` here?
Answer: The melting point was 188 to 190 °C.

Question: For `COC(=O)c1cc(-n2c(=O)c3c(n(C)c2=O)CCC3)ccc1Cl`, which melting point is on record?
Answer: Its melting point is 164 to 166 °C.

Question: For `Cc1ccc(CC2CCN(C(=O)C(=O)Nc3ccc4c(c3)OCC(=O)N4)CC2)cc1`, which melting point is on record?
Answer: The melting point was 228 to 231 °C.

Question: With `CCOP(=O)(CC(Cc1ccccc1)NS(=O)(=O)c1ccc(C)cc1)OCC` (configuration not stated) as the compound, how does the melting point read?
Answer: Its melting point is 86 to 89 °C.

Question: With `COc1c(N2CCC(c3ccccc3CN)C2)c(F)cc2c(=O)c(C(=O)O)cn(C3CC3)c12` (configuration not stated) as the compound, how does the melting point read?
Answer: Its melting point is 170 to 174 °C.

Question: Which melting point does the source give for `Cc1cc(-n2ccnc2)c2cccc(OCc3c(Cl)ccc(S(=O)(=O)N4CCC[C@H]4C(=O)N(C)CCCN(C)CCCO)c3Cl)c2n1` here?
Answer: The melting point was 92 °C.

Question: For `CCc1nc2c(C)nc(C)nc2n1-c1ccc(CCOC(=O)NS(=O)(=O)c2ccc(C)cc2)cc1`, which melting point is on record?
Answer: Its melting point is 162 °C.

Question: Which melting point does the source give for `CC(C)OC(=O)Nc1ccc(N)c(N)c1` here?
Answer: The melting point was 108 to 110 °C.

Question: Which melting point does the source give for `CCc1nc(-c2ccccc2)[nH]c(=O)c1C` here?
Answer: The melting point was 195 to 199 °C.

Question: For `Cc1cccc(-n2c(-c3cc(-c4ccc(Cl)cc4)c(N4CCOCC4)s3)nc3ccccc3c2=O)c1`, which melting point is on record?
Answer: The melting point was 228 to 230 °C.

Question: For `Cc1c(N2C(=O)CCC2=O)nc(C)n2c1c(CCCl)c1ccccc12`, which melting point is on record?
Answer: Its melting point is 232 to 234 °C.

Question: For `CC1(C)OC(=O)Nc2ccc(-c3cc(F)cc(F)c3)cc21`, which melting point is on record?
Answer: The melting point was 218 to 219 °C.

Question: Which melting point does the source give for `NC(=O)CCSSSSCCC(N)=O` here?
Answer: The melting point was 127 °C.

Question: With `ONC(CCc1ccccc1)CCc1ccccc1` as the compound, how does the melting point read?
Answer: The melting point was 54 to 55 °C.

Question: Which melting point does the source give for `CS(=O)(=O)c1ccc(-c2ccccc2N2CCCCC2)cc1` here?
Answer: The melting point was 140 °C.

Question: For `CCCn1c(=O)c2c(NC)n[nH]c2n(Cc2cccnc2)c1=O`, which melting point is on record?
Answer: Its melting point is > 300 °C.

Question: With `CCCCc1nc(S(C)=O)c(C(=O)O)n1Cc1ccc(-c2ccccc2C(=O)O)cc1` (configuration not stated) as the compound, how does the melting point read?
Answer: The melting point was 208 °C.

Question: With `CC(C)(C)CNc1cc(NCC(C)(C)C)nc(Cl)n1` as the compound, how does the melting point read?
Answer: Its melting point is 178 to 185 °C.

Question: For `CCOC(=O)C1(Nc2nc(-c3ccc(Br)cc3)cs2)CC1`, which melting point is on record?
Answer: Its melting point is 152 to 154 °C.

Question: For `CN1CCN(c2cccc3c2C[C@H](NC(=O)C2CCCCC2)CC3)CC1`, which melting point is on record?
Answer: The melting point was 183 to 184 °C.

Question: With `CC(C)Oc1ccc2ccc(C(N)=O)c(OC(C)C)c2c1` as the compound, how does the melting point read?
Answer: Its melting point is 145 to 146 °C.

Question: Which melting point does the source give for `COC(=O)c1ccc(N2CCNC2=O)cc1` here?
Answer: The melting point was > 200 °C.

Question: With `O=C(O)CCCCCOc1ccccc1OCc1ccccc1` as the compound, how does the melting point read?
Answer: The melting point was 77 to 78 °C.

Question: Which melting point does the source give for `CCCCC1=NC2(CCCC2)C(=O)N1Cc1ccc(-c2ccccc2S(=O)(=O)NC(=O)c2onc(C)c2C)c(CN2CCC(C)(C)C2=O)c1` here?
Answer: The melting point was 104 to 110 °C.

Question: Which melting point does the source give for `Cc1cc(C(=O)c2cccc(Br)c2)c(O)cc1Cl` here?
Answer: Its melting point is 115 to 117 °C.

Question: Which melting point does the source give for `CNC(=O)c1ccccc1Nc1nc(Nc2ccc3c(c2)COC[C@@H]2CCCN32)ncc1Cl` here?
Answer: Its melting point is 216 to 218 °C.

Question: With `C=C[C@H](Cc1ccccc1)NC(=O)OCc1ccccc1` as the compound, how does the melting point read?
Answer: The melting point was 87 to 88 °C.

Question: With `CCOc1ccccc1CN1CCC(=O)C(C(c2ccc(F)cc2)c2ccc(F)cc2)C1` (configuration not stated) as the compound, how does the melting point read?
Answer: Its melting point is 137 to 138 °C.

Question: For `Nc1nc(Cl)nc2cnc(Oc3ccc(F)cc3F)cc12`, which melting point is on record?
Answer: The melting point was > 300 °C.

Question: Which melting point does the source give for `CC(C)(NC(=O)C(CS)NC(=O)c1ccccc1)c1ccccc1` (configuration not stated) here?
Answer: The melting point was 169 to 173 °C.

Question: With `CCOC(=O)C1=Cc2cccc(C(F)(F)F)c2OCC1` as the compound, how does the melting point read?
Answer: Its melting point is 57 to 59 °C.

Question: With `CCNC(=S)NNC(=O)OC` as the compound, how does the melting point read?
Answer: Its melting point is 117 °C.

Question: Which melting point does the source give for `CC(C)(Oc1ccc(NC(=O)c2cc(Cl)cc(Cl)c2)cc1)C(=O)O` here?
Answer: Its melting point is 206 to 207 °C.

Question: For `OC(c1ccc(OCc2ccccc2)cc1)c1ccc(OCc2ccccc2)cc1`, which melting point is on record?
Answer: Its melting point is 113 to 120 °C.

Question: For `CN(C)Cc1ccc2cc(NC(=O)c3ccc(-c4ccccc4)cc3)ccc2n1`, which melting point is on record?
Answer: Its melting point is 191 to 194 °C.

Question: For `CCOC(=O)Cc1cccc(C(=O)c2ccccc2)c1N`, which melting point is on record?
Answer: The melting point was 77 to 78 °C.

Question: For `Cc1ccc(C(CCCOC(=O)Nc2ccccc2)=NNC(N)=S)cc1`, which melting point is on record?
Answer: The melting point was 170 to 173 °C.

Question: With `Cn1nnnc1SCCCC(=O)c1ccccn1` as the compound, how does the melting point read?
Answer: The melting point was 73 to 75 °C.

Question: For `Nc1ccc(Oc2cccc(C(F)(F)F)c2Cl)cc1`, which melting point is on record?
Answer: Its melting point is 65 to 66.5 °C.

Question: For `C/C(=C\c1cccc2c1NCCNC2=O)CCCC(=O)O`, which melting point is on record?
Answer: Its melting point is 257 to 259 °C.

Question: With `COC(=O)c1ccc2[nH]cc(C(C)=O)c2c1` as the compound, how does the melting point read?
Answer: Its melting point is 235 to 236 °C.

Question: With `CC(C)C[C@H](NC(=O)c1ccc2c(c1)Nc1ccccc1S2)C(=O)N[C@H]1CCOC1OC(=O)C(C)(C)C` (some centres not stated) as the compound, how does the melting point read?
Answer: Its melting point is 107 to 109 °C.

Question: For `Cc1c[nH]c(=O)nc1N`, which melting point is on record?
Answer: Its melting point is 264 to 269 °C.

Question: With `COc1ccc(CN2C(=O)CCC2C(=O)O)cc1` (configuration not stated) as the compound, how does the melting point read?
Answer: The melting point was 103 to 104 °C.

Question: For `CCc1nc2cccc(C(=O)O)c2n1Cc1ccc(-c2ccccc2-c2nnn[nH]2)cc1`, which melting point is on record?
Answer: The melting point was 261 to 262 °C.

Question: With `Oc1c(F)cc(Cn2c(S)nc3ccccc32)cc1F` as the compound, how does the melting point read?
Answer: Its melting point is 200 °C.

Question: With `CCC(C)OC1OC(C(O)N(CC(C)C)C(=O)N(CCCl)N=O)C(O)C1O` (configuration not stated) as the compound, how does the melting point read?
Answer: Its melting point is 80 to 82 °C.

Question: For `O=C(C1=C(c2ccc(O)cc2)CCc2ccccc21)c1ccc(OCCN2CCCCC2)cc1`, which melting point is on record?
Answer: Its melting point is 83 to 85 °C.

Question: Which melting point does the source give for `Cc1ccc2c3c(ccc2n1)OC[C@H](CN1CCN(c2cccc(C)c2C)CC1)O3` here?
Answer: The melting point was 112 to 113 °C.

Question: For `O=C1CN2C(=O)CCC2N1` (configuration not stated), which melting point is on record?
Answer: The melting point was 155 to 157 °C.
